Counter-ions that a name gives are not always drawn.
Tested on: histamine induced paw oedema
Experiment: Histamine induced paw oedema
Format: in vivo, male Sprague-Dawley rats
Settings: at 1 mg/kg, intraperitoneally 15 minutes before the anesthetics, rats, paw swelling 20 minutes after histamine
Procedure: II. Histamine induced paw oedema Values for in vivo inhibition of […] induced oedema for the compounds of the present invention were assessed in rats essentially as described by Amann et al. (Europ. J. Pharmacol. 30 279, 227-231, 1995). In brief 250-300 g male Sprague-Dawley rats were […] pentobarbital sodium, and placed on a 32 degree heated table. Ten minutes later histamine (50 microliter, 3 mg/ml) was injected in the right hind paw and 20 minutes hereafter the paw swelling was determined by water plethysmography (Ugo Basile). Test compounds were administered intraperitoneally at 15 minutes before the anesthetics. |Inhibition of histamine induced oedema at 1 mg/kg

SMILES	% oedema inhibition [%]
Cl.O=C(O)[C@@H]1CCCN(CCC=C2c3ccccc3OCOc3ccccc32)C1 [Example 2, (R)-1-(3-(12H-Dibenzo[d,g][1,3]dioxocin-12-ylidene)-1-propyl)-3-piperidinecarboxylic acid hydrochloride]	52
CCOC(=O)[C@@H]1CCCN(CCC=C2c3ccccc3OCOc3ccccc32)C1 [Example 3, (R)-1-(3-(12H-Dibenzo[d,g][1,3]doxocin-12-ylidene)-1-propyl)-3-piperidinecarboxylic acid ethyl ester hydrochloride]	33
